Data set [1] can be described thus: Cleavage study of silyl conjugates at pH 4.5 (1:1 THF:0.05 M acetate buffer, 37° C., HPLC). As to conditions: HPLC over 24 hours. It is filed as physicochemical. Here is the method: (§1) To study the release properties of the silyl conjugates, the conjugates were subject to hydrolysis conditions at both pH 7.4 and pH 4.5 to simulate blood and endosomes/lysosome environments, respectively.
The benzyl ester intermediates from Example 11 (step A), Example 12, Example 13, Example 14 (step A), and Example 15 were each dissolved in a 1:1 mixture of THF:0.05 M acetate buffer (pH 4.5) and heated to 37° C. with stirring. The mixture was analyzed with HPLC at T=1, 2, 3, 4, 5, 7 and 24 hours via Method B (see General Procedures in Example 1). Aliquots were quenched in a 1:1 acetonitrile:triethylamine solvent mixture to halt the hydrolysis reaction and allowed to stand up to 48 hours before HPLC analysis.

A short description of data set [2]: Cleavage study of silyl conjugates at pH 7.4 (THF:0.01 M PBS buffer, 37° C.). It is filed as physicochemical. As to conditions: pH 7.4, 37° C., after 24 hours. How it is done:
as §1
Example 12 and Example 15 were dissolved in THF:0.01 M PBS buffer (pH 7.4) and heated to 37° C. with stirring for over 20 hours. […] Additionally, Example 11 was trapped with methyl-3-mercaptopropionate to approximate a bioconjugate.

Take `CC[C@]1(O)CC2CN(CCc3c([nH]c4ccccc34)[C@@](C(=O)OC)(c3cc4c(cc3OC)N(C)[C@H]3[C@@](O)(C(=O)OC)[C@H](O[Si]5(CCCCC(=O)NCCOCCN6C(=O)CC(SCCC(=O)OC)C6=O)CCCCC5)[C@]5(CC)C=CCN6CC[C@]43[C@@H]65)C2)C1` (stereo partly drawn) [Example 19, (3aR,3a^1R,4R,5S,10bR)-methyl 3a-ethyl-9-((5S,7R,9S)-5-ethyl-5-hydroxy-9-(methoxycarbonyl)-2,4,5,6,7,8,9,10-octahydro-1H-3,7-methano[1]azacycloundecino[5,4-b]indol-9-yl)-5-hydroxy-8-methoxy-4-((1-(5-((2-(2-(3-((3-methoxy-3-oxopropyl)thio)-2,5-dioxopyrrolidin-1-yl)ethoxy)ethyl)amino)-5-oxopentyl)silinan-1-yl)oxy)-6-methyl-3a,3a^1,4,5,5a,6,11,12-octahydro-1H-indolizino[8,1-cd]carbazole-5-carboxylate]: the “hydrolysis (release of desilylated parent vinca) in acidic media” value in data set [1] is listed as “undergo parent vinca release at a rate comparable to the corresponding benzyl ester from Example 11 (step A)”. For the same molecule, the “desilylation at pH 7.4” value in data set [2] is reported as “no desilylation was observed”.

The record behind these values is US9352049B2, “Ligand-therapeutic agent conjugates, silicon-based linkers, and methods for making and using them” (Albany Molecular Research, Inc., priority 2013, dated 2016).
